Assay results as given in patent publication US20020146787A1, “Coenzymes useful for the synthesis of L-carnitine” (Sigma-Tau Industrie Farmaceutiche Riunite S.p.A, priority 1998, published 2002).

What was measured:
[1] = pH stability for 1 h; format: physicochemical; details: pH range
Protocol: (§1) The gamma-butyrobetainyl chloride thus obtained is suitable for the synthesis of gamma-butyrobetainyl-coenzyme A. Coenzyme A is first suspended in an iced mixture of 1M of sodium bicarbonate at pH 7.5-9.5 (preferably pH 8.5). To this is added a definite amount of gamma-butyrobetainyl chloride (preferably in excess) keeping the pH values under control. After 15-30 minutes the reaction is complete. The formation of gamma-butyrobetainyl-coenzyme A is checked by HPLC (Spherisorb, C18 column) and finally subjected to a further purification stage (ion-exchange chromatography on DOWEX 50). The purity is checked again by HPLC (Spherisorb, C18 column). The physicochemical properties were determined on the washed product (see following table).
as §1, with “crotonobetainyl” for “gamma-butyrobetainyl”, “crotonobetainyl-coenzyme” for “gamma-butyrobetainyl-coenzyme”, “The purity is checked again by HPLC (Spherisorb, C18 column).” left out

[2] = Solubility; format: physicochemical; details: solvent in which soluble
Protocol: as §1
as §1, with “crotonobetainyl” for “gamma-butyrobetainyl”, “crotonobetainyl-coenzyme” for “gamma-butyrobetainyl-coenzyme”, “The purity is checked again by HPLC (Spherisorb, C18 column).” left out

[3] = Temperature stability (1 h); format: physicochemical
Protocol: as §1
as §1, with “crotonobetainyl” for “gamma-butyrobetainyl”, “crotonobetainyl-coenzyme” for “gamma-butyrobetainyl-coenzyme”

[4] = target: T1, L(−)-carnitine dehydratase (Escherichia coli, UniProt P31572); assay: L(−)-carnitine dehydratase activation test (formation of L(−)-carnitine from crotonobetaine); format: biochemical; details: 0.002 μmol cofactor, 10 min at 37° C.
T1 construct: partly concentrated L(−)-carnitine dehydratase (without factor F showing any activity)
Protocol: (§2) For the L(−)-carnitine dehydratase activation test according to the invention purified gamma-butyrobetainyl-coenzyme A is supplied (preferably 1-10 nmol) on potassium phosphate buffer (10 mM pH 7.5), which is added with partly concentrated L(−)-carnitine dehydratase (without factor F showing any activity) and the crotonobetaine solution to be metabolized (1M) and incubated at 37° C.
(§3) The L(−)-carnitine formed was subsequently tested with an optical test with the aid of carnitine acetyltransferase (according to BERGMEYER (1970)). A similar procedure was adopted in the racemization reaction test, in which a solution of D(+)-carnitine (1M) was added in the place of crotonobetaine. The L(−)-carnitine formed can be determined exactly by prior testing of the system with known solutions of L(−)-carnitine.
as §2, with “crotonobetainyl-coenzyme” for “gamma-butyrobetainyl-coenzyme”
Formation of L(−)-carnitine from crotonobetaine by means of concentrated L(−)-carnitine dehydratase and gamma-butyrobetainyl-coenzyme A (BB-CoA) after 10 minutes' incubation at 37° C. on potassium phosphate buffer (10 mM, pH 7.5).
Formation of L(−)-carnitine from crotonobetaine by means of concentrated L(−)-carnitine dehydratase and crotonobetainyl-coenzyme A (CB-CoA) after 10 minutes' incubation at 37° C. on potassium phosphate buffer (10 mM, pH 7.5).

[5] = system: system of racemization of carnitine; assay: Racemization reaction test (formation of L(−)-carnitine from D(+)-carnitine); format: biochemical; details: 0.002 μmol cofactor, 10 min at 37° C.
Protocol: as §3
Formation of L(−)-carnitine from D(+)-carnitine by means of a system of racemization of carnitine and gamma-butyrobetainyl-coenzyme A (BB-CoA) after 10 minutes' incubation at 37° C. on potassium phosphate buffer (10 mM, pH 7.5).
Formation of L(−)-carnitine from D(+)-carnitine via a system of racemization of carnitine and crotonobetainyl-coenzyme A (CB-CoA) after 10 minutes' incubation at 37° C. on potassium phosphate buffer (10 mM, pH 7.5).

[6] = 0 μg L-carnitine dehydratase (no enzyme), 20 μmol crotonobetaine, pH 7.5
[7] = 10 μg L-carnitine dehydratase, 0 μmol crotonobetaine (no substrate), pH 7.5
[8] = 10 μg L-carnitine dehydratase, 20 μmol crotonobetaine, potassium phosphate buffer 10 mM pH 7.5
[9] = 0 μg carnitine racemization system, 20 μmol substrate, pH 7.5
[10] = 30 μg carnitine racemization system, 0 μmol substrate, pH 7.5
[11] = 30 μg carnitine racemization system, 20 μmol substrate (head: Crotonobetaine, text: D(+)-carnitine), potassium phosphate buffer 10 mM pH 7.5

T1 sequence (P31572 whole entry): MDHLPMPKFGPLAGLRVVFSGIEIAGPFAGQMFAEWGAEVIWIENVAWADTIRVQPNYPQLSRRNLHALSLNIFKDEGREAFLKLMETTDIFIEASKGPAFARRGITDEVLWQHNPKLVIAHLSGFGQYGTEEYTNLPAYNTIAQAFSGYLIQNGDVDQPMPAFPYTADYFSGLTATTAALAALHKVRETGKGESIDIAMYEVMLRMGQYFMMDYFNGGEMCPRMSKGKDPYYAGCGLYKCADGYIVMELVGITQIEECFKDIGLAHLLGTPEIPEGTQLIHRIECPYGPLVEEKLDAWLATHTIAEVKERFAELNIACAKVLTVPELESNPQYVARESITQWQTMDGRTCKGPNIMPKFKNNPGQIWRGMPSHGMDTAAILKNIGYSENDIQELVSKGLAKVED

| SMILES | pH stability for 1 h [1] | Solubility [2] | Temperature stability (1 h) ([3]; 0° C. to 90° C.) | Temperature stability (1 h) ([3]; −20° C.) | Carnitine synthesis [4, 6] [µmol] | Carnitine synthesis [4, 7] [µmol] | Carnitine synthesis [4, 8] [µmol] | Carnitine synthesis [5, 9] [µmol] | Carnitine synthesis [5, 10] [µmol] | Carnitine synthesis [5, 11] [µmol] | Temperature stability (1 h) ([3]; 20° C. to 60° C.) | Temperature stability (1 h) ([3]; −20° C. to 0° C.) |
| --- | --- | --- | --- | --- | --- | --- | --- | --- | --- | --- | --- | --- |
| CC(C)(COP(=O)(O)OP(=O)(O)OC[C@H]1O[C@@H](n2cnc3c(N)ncnc32)[C@H](O)[C@@H]1OP(=O)(O)O)[C@@H](O)C(=O)NCCC(=O)NCCSC(=O)CCC[N+](C)(C)C [BB-CoA, gamma-butyrobetainyl-coenzyme A] | 3-10 | water | >90%: 0 °C to 90 °C | 100%: −20 °C | 0 | 0 | 0.18 | 0 | 0 | 0.162 |  |  |
| CC(C)(COP(=O)(O)OP(=O)(O)OC[C@H]1O[C@@H](n2cnc3c(N)ncnc32)[C@H](O)[C@@H]1OP(=O)(O)O)[C@@H](O)C(=O)NCCC(=O)NCCSC(=O)/C=C/C[N+](C)(C)C [CB-CoA, crotonobetainyl-coenzyme A] | 2-10 | water |  |  | 0 | 0 | 0.271 | 0 | 0 | 0.243 | 75%: 20 °C to 60 °C | 100%: −20 °C to 0 °C |
